The values that follow come from patent US20250057801A1, “Methods for Treating Traumatic Brain Injury” (The Government of the United States, as Represented by the …, priority 2023, published 2025).

The conditions of series [1]: cited from earlier work.
For series [2] the following is noted: in vivo; cited from earlier work.
Series [3] relates to penetrating brain injury (PTBI). In words: Western blot of antioxidant, oxidative stress, membrane integrity and apoptosis markers after PTBI. In kind it is in vivo, male Sprague-Dawley rats. The procedure: (§1) Three experimental groups (N=4-8 male Sprague-Dawley rats/group) were studied. The first group was a sham group in which there was no penetrating brain injury and no treatment with resveratrol triacetate (RES). The second group was subject to a penetrating brain injury (via probe insertion and balloon inflation) and treated with dimethyl sulfoxide, DMSO (vehicle, VEH) and dosed at 15 minutes and 6 hours after injury and then once daily. The third group was subject to a penetrating brain injury and treated with RES and dosed at 15 minutes and six hours after injury and then once daily.
(§2) After 60 minutes of the last dosing at either 24 hours or 3 days post-injury, fresh viable mitochondria were isolated from the injury core of rats' brain. Homogenate fractions were collected for a glutathione assay.
(§3) Mitochondrial bioenergetics parameters were measured using a high-throughput procedure of the Seahorse XFe96 Flux Analyzer. The glutathione content was measured using a 5,5′-dithiobis-(2-nitrobenzoic acid) (DTNB) cycling method/assay. Antioxidant and oxidative stress were measured by a Western blot (WB) analysis.
(§4) Graphs and statistical analysis were performed using GraphPad Prism program. Data are presented as mean±SEM (standard error of means). ANOVA with Fisher post-hoc test was used to evaluate significant difference at * p<0.05 vs. Sham; $ p<0.05 vs. Vehicle (N=4-8 animals/group).
A general note: A western blot detects proteins with antibodies after separation by electrophoresis.

Series [4] has the same test system. In words: Mitochondrial bioenergetics (Seahorse XFe96 Flux Analyzer) in injury core mitochondria after PTBI. In kind it is in vivo, male Sprague-Dawley rats. The note with it: compared to VEH. The procedure: as §1, §2, §3, §4
Series [5] shares this test system. The experiment in a line: Total glutathione content (DTNB cycling assay) in brain homogenate after PTBI. In kind it is in vivo, male Sprague-Dawley rats. To be noted: 24 hours post-PTBI. Here is the method: as §1, §2, §3, §4

In general, half-life refers to the time needed for the level to fall by half in the phase considered. For the molecule `Oc1ccc(C=Cc2cc(O)cc(O)c2)cc1` [Resveratrol], the water solubility entry in series [1] is given as “low water solubility”. Also, the half-life in series [2] is 8 to 14 min.
As for `CC(=O)Oc1ccc(/C=C/c2cc(OC(C)=O)cc(OC(C)=O)c2)cc1` [RES, 3′,5′,4′-tri-o-acetyl resveratrol], in series [3] (24 hours post-PTBI), the “Cytochrome C (CYT C) expression compared to VEH” value is recorded as “+105%”, the “catalase (CAT) expression compared to VEH” value is on record as −62%, the “glyceraldehyde 3-phosphate dehydrogenase (GAPDH) expression compared to VEH” value is −16.5% and the “lipid peroxidation marker 4-hydroxynonenal (4-HNE) adduct formation compared to VEH” value was “non-significant improvement”. In series [3] (24 hours post-PTBI), the “superoxide dismutase (SOD) expression compared to VEH” value was “+42%” and the “thioredoxin (TRX) expression compared to VEH” value is reported as “+38%”. In series [3] (3 days post-PTBI), the “CAT expression compared to VEH” value was −30%, the “CYT C expression compared to VEH” value is “+64%”, the “SOD expression compared to VEH” value was “+90%” and the “anti-apoptotic protein Bcl-2 expression compared to VEH” value is on record as “+104%”. Further, the “voltage-dependent anion channels (VDAC) expression compared to VEH” value in series [3] (3 days post-PTBI) was “+47%”. Besides, the “bioenergetics in injured core mitochondria, as measured by ATP synthesis” value in series [4] (24 hours post-PTBI) is “trend of improved bioenergetics”. Also, the “bioenergetics in injured core mitochondria” value in series [4] (3 days post-PTBI) was “non-significant trend of bioenergetics improvement”. In series [5], the “total glutathione (GSH) content” value was “reversed PTBI-induced downregulation of total glutathione (GSH) content”.
